Laboratory results as given in ChEMBL document CHEMBL1201862, “PubChem BioAssay data set” (2004).
The source made the active and inactive calls.

Experiments:
[1] = target: Phospholipase D1 (Homo sapiens, UniProt Q13393); assay: PLD1 inhibitor potency in cells, dose response (AID 602151); format: functional;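 further: cellular PLD1 assay in Calu-1 cells stimulated with PMA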
[2] = target: Phospholipase D2 (Homo sapiens, UniProt O14939); assay: PLD2 inhibitor potency in cells, dose response (AID 602147); format: functional;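 further: cellular assay in HEK293 cells overexpressing GFP-tagged PLD2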
Chain of Phospholipase D2 (O14939 whole entry): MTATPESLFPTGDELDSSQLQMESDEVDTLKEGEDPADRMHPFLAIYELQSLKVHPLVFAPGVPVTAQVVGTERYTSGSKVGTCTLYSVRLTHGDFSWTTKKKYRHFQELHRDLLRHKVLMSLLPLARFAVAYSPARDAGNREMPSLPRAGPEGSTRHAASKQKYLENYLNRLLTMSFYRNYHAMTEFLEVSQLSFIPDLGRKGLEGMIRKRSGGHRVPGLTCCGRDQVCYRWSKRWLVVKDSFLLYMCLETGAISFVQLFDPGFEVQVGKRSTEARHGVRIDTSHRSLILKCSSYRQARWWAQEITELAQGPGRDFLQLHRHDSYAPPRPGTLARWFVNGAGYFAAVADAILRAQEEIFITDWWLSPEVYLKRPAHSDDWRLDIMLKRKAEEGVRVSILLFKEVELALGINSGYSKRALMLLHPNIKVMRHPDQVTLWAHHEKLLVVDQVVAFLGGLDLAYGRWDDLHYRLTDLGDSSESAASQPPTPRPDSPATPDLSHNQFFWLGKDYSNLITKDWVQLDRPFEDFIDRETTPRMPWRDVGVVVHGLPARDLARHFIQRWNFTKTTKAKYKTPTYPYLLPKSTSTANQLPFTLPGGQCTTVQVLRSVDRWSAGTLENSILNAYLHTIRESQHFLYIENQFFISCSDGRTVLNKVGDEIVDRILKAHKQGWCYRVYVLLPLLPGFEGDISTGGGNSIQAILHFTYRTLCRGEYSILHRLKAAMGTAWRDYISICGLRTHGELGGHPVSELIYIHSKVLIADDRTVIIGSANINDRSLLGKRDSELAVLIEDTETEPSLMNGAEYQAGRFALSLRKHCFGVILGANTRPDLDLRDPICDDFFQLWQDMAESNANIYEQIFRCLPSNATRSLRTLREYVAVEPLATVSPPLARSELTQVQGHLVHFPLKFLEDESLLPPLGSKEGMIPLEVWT

[3] = target: T1, Bcl-2-related protein A1 (Mus musculus, UniProt Q07440); format: functional;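 further: confirmatory dose–response counterscreen on Bfl-1, used to check hits from a UBC13 polyubiquitin inhibitor campaign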
T1 sequence (Q07440 whole entry): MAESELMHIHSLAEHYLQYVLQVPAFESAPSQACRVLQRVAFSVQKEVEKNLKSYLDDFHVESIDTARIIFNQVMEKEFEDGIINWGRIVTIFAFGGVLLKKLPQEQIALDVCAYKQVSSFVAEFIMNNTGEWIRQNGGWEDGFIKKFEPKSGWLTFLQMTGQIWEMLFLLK

[4] = target: T2, Ubiquitin-conjugating enzyme E2 N (Homo sapiens, UniProt P61088); format: functional
T2 sequence (P61088 whole entry): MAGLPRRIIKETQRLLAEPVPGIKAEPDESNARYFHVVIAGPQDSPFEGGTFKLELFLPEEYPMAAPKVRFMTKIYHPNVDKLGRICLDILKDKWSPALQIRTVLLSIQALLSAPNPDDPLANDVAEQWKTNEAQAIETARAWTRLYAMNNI

[5] = target: T2, Ubiquitin-conjugating enzyme E2 N; format: functional; remark: listed apart in the source
[6] = target: T3, Microphthalmia-associated transcription factor (Homo sapiens, UniProt O75030); assay: TRPM1 promoter luciferase signal decrease, dose response, MITF inhibitor project, cell-based, SK-MEL-5, cherry-picked, set 3 (AID 493073); format: functional
T3 sequence (O75030 whole entry): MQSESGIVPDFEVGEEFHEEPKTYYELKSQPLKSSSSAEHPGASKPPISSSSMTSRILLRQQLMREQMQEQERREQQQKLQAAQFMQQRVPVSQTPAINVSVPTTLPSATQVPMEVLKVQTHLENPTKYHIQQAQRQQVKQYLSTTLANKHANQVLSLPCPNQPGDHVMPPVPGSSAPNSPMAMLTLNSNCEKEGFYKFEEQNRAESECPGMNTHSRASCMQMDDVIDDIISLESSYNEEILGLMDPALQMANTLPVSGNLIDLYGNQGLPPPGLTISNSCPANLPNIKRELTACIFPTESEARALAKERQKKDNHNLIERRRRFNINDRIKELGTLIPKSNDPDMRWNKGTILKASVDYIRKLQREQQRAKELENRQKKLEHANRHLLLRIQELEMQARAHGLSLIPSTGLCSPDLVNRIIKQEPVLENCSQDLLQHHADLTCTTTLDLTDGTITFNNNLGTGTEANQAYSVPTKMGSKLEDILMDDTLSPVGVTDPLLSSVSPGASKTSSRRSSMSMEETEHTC

[7] = test system: CHO; assay: cytotoxicity in TLR9-MyD88 CHO cells, dose response, cytotoxicity control for TLR9-MyD88 binding inhibitor project, cell-based, luminescence (AID 588339); format: functional, hamster; conditions: Cricetulus griseus;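 further: CHO cells stably coexpressing TLR9 and MyD88 fusions from primary screen; compound exposure lasted 48 hours before viability readout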
[8] = target: T4, Replicative DNA helicase DnaB (Mycobacterium tuberculosis, UniProt P9WMR3); assay: DnaB intein splicing inhibitors, dose response, biochemical, cell-free fluorescence (AID 449749); format: functional
T4 sequence (P9WMR3 whole entry): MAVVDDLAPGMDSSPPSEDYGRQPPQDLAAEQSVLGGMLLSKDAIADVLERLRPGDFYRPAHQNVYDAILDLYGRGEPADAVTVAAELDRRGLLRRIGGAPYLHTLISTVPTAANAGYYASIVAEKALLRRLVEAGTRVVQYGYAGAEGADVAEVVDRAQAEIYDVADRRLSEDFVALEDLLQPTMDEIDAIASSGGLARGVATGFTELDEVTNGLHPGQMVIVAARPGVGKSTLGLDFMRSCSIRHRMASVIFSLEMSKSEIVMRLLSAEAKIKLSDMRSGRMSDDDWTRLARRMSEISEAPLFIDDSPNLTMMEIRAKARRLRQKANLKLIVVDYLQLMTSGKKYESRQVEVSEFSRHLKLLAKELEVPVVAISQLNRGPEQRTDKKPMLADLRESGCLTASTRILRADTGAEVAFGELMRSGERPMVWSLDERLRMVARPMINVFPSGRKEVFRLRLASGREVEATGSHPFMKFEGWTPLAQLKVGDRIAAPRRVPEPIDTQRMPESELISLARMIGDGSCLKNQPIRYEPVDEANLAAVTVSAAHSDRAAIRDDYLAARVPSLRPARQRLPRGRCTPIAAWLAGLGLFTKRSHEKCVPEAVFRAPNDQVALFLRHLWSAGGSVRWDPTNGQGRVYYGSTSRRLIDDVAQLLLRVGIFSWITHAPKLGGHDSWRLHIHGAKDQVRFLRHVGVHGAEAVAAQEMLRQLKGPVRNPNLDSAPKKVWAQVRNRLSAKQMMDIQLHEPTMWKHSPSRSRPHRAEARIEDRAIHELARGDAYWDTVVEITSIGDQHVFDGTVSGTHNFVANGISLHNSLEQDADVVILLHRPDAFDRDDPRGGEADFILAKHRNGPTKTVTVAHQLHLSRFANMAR

[9] = target: T5, Protein RecA (Mycobacterium tuberculosis, UniProt P9WHJ3); assay: Fluorescence Cell-Free Homogeneous Dose Retest to Identify Inhibitors of RecA-Intein Splicing Activity. [Related pubchem assays (depositor defined):AID2097, AID2223, AID489010, AID492950]; format: functional
T5 sequence (P9WHJ3 whole entry): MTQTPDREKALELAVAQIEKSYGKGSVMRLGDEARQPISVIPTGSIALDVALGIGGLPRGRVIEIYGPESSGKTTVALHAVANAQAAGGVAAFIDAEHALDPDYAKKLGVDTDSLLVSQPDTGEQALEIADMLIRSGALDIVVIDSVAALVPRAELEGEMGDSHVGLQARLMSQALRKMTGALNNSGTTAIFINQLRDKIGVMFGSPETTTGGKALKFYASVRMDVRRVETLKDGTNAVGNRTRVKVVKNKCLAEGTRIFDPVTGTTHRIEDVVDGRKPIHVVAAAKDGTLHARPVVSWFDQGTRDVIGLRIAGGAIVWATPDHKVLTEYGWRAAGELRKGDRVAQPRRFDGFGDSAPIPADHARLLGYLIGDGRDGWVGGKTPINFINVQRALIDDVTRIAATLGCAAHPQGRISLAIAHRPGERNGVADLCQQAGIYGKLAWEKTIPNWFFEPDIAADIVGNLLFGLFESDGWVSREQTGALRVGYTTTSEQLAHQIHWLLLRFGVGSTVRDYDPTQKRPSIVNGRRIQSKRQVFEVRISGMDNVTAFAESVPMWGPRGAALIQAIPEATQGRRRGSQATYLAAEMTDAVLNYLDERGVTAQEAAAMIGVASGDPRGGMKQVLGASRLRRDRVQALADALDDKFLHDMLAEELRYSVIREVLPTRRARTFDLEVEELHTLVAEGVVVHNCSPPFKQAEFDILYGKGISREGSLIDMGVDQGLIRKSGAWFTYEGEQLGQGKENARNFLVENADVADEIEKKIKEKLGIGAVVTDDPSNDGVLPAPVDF

[10] = target: Beta Lactamase (Pseudomonas aeruginosa, UniProt Q932Y6); assay: beta-lactamase reporter inhibitor potency, dose response, artefact control for TLR9-MyD88 binding inhibitor project, BLA reporter cells, FRET fluorescence (AID 588341); format: cell-based;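 further: cell based assay in CHO-K1 cells stably expressing beta-lactamase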
Chain of Beta Lactamase (Q932Y6 whole entry): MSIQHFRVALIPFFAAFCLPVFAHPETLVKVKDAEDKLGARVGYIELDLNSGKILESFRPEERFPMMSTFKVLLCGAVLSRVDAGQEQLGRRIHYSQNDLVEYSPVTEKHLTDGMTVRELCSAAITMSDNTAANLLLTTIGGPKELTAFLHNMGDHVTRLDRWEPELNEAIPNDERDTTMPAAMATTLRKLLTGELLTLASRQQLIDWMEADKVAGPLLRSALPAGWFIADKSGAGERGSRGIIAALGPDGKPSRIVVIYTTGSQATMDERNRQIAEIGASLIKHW

[11] = Shn3 3'UTR reporter inhibitors, dose response, cell-based, Clone20 osteoblasts, firefly luciferase, cherry-picked (AID 624132); format: functional;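 further: firefly luciferase luminescence from reporter carrying the Shn3 3'UTR in osteoblasts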
[12] = HepG2 cell cytotoxicity, dose response, cytotoxicity control for Shn3 inhibitor project, CellTiter-Glo, cherry-picked (AID 624134); format: functional, cell-based
[13] = control 3'UTR Renilla luciferase suppression, dose response, counter-screen for Shn3 inhibitor project, cell-based, Clone20-Shn3RL, cherry-picked (AID 624133); format: functional
[14] = target: ATP-binding cassette sub-family B member 6 (Homo sapiens, UniProt Q9NP58); assay: ABCB6 transporter inhibitors, porphyrin accumulation, dose response, flow cytometry, K562-ABCB6 cells, cherry pick 02 (AID 624487); format: functional; conditions: read-out: EC50_MICROM
Chain of ATP-binding cassette sub-family B member 6 (Q9NP58 whole entry): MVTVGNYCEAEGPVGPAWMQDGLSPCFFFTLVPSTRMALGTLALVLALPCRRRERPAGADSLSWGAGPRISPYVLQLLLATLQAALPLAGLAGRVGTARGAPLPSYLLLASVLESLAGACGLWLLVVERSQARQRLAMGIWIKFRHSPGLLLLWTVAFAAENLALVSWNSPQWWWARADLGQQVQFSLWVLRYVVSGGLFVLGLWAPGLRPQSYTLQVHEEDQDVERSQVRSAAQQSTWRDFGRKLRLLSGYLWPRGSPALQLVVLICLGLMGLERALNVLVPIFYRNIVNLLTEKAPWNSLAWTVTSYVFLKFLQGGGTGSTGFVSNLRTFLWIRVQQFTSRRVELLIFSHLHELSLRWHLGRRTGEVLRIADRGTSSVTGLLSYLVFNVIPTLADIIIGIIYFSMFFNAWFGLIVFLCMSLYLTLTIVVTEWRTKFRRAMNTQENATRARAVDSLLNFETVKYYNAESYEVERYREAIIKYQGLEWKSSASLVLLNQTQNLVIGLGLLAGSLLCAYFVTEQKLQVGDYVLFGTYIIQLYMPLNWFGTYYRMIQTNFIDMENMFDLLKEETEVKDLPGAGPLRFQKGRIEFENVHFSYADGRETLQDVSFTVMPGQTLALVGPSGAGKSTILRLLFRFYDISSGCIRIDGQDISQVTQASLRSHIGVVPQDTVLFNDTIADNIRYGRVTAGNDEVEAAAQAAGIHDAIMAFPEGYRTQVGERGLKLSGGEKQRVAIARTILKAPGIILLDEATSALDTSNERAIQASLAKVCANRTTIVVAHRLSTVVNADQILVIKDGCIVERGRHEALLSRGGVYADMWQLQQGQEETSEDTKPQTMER

[15] = target: Paired box protein Pax-8 (Homo sapiens, UniProt Q06710); assay: inhibitors of PAX8-driven TPO luciferase reporter, dose response, RMG-I cells, cherry-pick (AID 687027); format: functional, cell-based;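 further: luciferase reporter driven by Pax8 target thyroperoxidase promoter measured by SteadyGlo luminescence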
Chain of Paired box protein Pax-8 (Q06710 whole entry): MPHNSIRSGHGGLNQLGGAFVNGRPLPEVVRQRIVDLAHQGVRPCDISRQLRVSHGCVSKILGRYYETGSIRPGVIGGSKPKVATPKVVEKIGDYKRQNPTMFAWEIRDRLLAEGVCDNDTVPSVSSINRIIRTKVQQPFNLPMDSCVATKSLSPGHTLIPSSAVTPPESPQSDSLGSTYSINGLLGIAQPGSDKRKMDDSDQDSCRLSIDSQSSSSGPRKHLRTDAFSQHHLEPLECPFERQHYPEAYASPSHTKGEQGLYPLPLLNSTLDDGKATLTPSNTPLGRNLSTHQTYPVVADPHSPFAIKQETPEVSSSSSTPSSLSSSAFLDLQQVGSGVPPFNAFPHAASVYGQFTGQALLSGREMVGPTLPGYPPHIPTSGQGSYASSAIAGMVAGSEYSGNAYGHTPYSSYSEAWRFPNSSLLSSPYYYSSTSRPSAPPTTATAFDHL

[16] = cytotoxicity in COV362 ovarian cancer cells, dose response, cytotoxicity control for PAX8 inhibitor project, cell-based, plate reader, dry powder, SA12 (AID 743144); format: functional
[17] = IOSE-T80 ovarian epithelial cell cytotoxicity, dose response, cytotoxicity control for PAX8 inhibitor project, plate reader, dry powder samples (AID 743045); format: functional, cell-based
[18] = A2780 ovarian cancer cell cytotoxicity, dose response, cytotoxicity control, plate reader, dry powder samples (AID 743046); format: functional, cell-based
[19] = NIH:OVCAR-3 ovarian cancer cell cytotoxicity, dose response, PAX8 inhibitor project, plate reader, dry powder samples (AID 743044); format: functional, cell-based
[20] = IGROV1 ovarian cancer cell cytotoxicity, dose response, PAX8 inhibitor project, plate reader, dry powder samples (AID 743043); format: functional, cell-based; conditions: IGROV-1
[21] = cytotoxicity in OVCAR4 cells, dose response, cytotoxicity control for PAX8 inhibitor project, cell-based, plate reader, dry powder, SA11 (AID 743150); format: functional; conditions: OVCAR-4
[22] = cytotoxicity in COV434 cells, dose response, cytotoxicity control for PAX8 inhibitor project, cell-based, plate reader, dry powder, SA7 (AID 743145); format: functional
[23] = cytotoxicity in OV-90 ovarian cancer cells, dose response, PAX8 inhibitor project, cell-based, plate reader, dry powder, SA8 (AID 743149); format: functional
[24] = non-specific cell cytotoxicity, dose response, cytotoxicity control for PAX8 inhibitor project, plate reader, dry powder samples (AID 743021); format: functional, cell-based
[25] = cytotoxicity dependent on PAX8, dose response, cell-based, plate reader, dry powder (AID 743049); format: functional
[26] = test system: Candida albicans; assay: growth inhibition of azole-resistant C. albicans, dose response, CaCi-8 strain, Alamar Blue, dry powder, set 3 (AID 488905); format: functional, organism-based
[27] = test system: Candida albicans; assay: reversal of fluconazole resistance in C. albicans, dose response, CaCi-2 strain, Alamar Blue, dry powder, set 3 (AID 488907); format: functional, organism-based

Chain of Phospholipase D1 (Q13393 whole entry): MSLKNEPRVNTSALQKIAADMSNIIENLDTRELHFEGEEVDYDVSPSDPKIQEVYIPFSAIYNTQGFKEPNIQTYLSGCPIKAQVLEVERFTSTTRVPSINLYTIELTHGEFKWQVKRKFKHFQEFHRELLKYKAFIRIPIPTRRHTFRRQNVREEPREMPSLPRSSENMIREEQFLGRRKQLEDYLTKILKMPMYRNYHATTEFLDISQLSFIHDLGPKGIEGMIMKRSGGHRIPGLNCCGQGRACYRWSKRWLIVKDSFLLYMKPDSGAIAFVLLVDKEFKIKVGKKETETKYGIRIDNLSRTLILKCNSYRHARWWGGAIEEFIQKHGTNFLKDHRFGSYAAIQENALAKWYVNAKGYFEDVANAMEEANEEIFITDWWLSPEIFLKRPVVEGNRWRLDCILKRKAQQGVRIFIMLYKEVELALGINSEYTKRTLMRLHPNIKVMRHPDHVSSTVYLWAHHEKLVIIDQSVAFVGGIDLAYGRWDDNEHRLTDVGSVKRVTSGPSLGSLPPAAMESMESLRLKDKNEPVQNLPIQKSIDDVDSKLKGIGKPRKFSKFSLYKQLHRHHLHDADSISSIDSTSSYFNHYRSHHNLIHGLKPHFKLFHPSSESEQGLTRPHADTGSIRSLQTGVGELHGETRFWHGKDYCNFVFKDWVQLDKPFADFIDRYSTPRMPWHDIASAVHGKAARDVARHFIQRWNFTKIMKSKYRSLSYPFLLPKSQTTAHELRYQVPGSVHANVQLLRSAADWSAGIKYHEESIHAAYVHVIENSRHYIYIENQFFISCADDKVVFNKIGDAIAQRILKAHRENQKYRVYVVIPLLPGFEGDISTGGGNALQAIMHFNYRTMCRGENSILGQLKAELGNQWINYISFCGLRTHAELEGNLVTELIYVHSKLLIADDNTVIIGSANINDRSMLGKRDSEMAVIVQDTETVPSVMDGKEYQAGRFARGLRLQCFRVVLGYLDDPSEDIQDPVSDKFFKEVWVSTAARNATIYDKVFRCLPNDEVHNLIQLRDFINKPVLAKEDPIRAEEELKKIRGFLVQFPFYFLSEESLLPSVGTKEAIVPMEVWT

**Q.** With `O=C(NCCN1CCN(c2ccncc2)CC1)c1cc2cc(F)ccc2[nH]1` as the compound, how does the IC50 [1] read?
**A.** 3.6 µM (active)

**Q.** And the IC50 [2]?
**A.** 15 µM (active)

**Q.** What does the source list for `CC(=O)Nc1ccc(NC(=O)c2nc(S(=O)(=O)Cc3ccccc3)ncc2Cl)cc1`?
**A.** IC50 [3]: > 20 µM (inactive); IC50 [4]: 10.9 µM (active); IC50 [5]: > 20 µM (inactive); AC50 [6]: 12.8 µM (active); IC50 [7]: 6.31 µM (active); AC50 [8]: 11.2 µM (active); EC50 [9]: 9.36 µM (active); IC50 [10]: 7.61 µM (active); AC50 [11]: 773 nM (active); AC50 [12]: 28.6 µM (active); AC50 [13]: 6.33 µM (active); EC50 [14]: 8.72 µM (active); AC50 [15]: 9.86 µM (active); AC50 [16]: 23.1 µM (active); AC50 [17]: 18.2 µM (active); AC50 [18]: 10.2 µM (active); AC50 [19]: 15.3 µM (active); AC50 [20]: 15.8 µM (active); AC50 [21]: 25.9 µM (active); AC50 [22]: 12.7 µM (active); AC50 [23]: 30 µM (active); AC50 [24]: 20.7 µM (active); AC50 [25]: 17.6 µM (active)

**Q.** Which AC50 [26] does the source give for `CCCCC(=O)N1CCN(c2ccccn2)CC1` here?
**A.** 283 nM (active)

**Q.** What about the AC50 [27] of the same compound?
**A.** 730 nM (active)
